According to patent publication US20050239656A1, “Pyridine compounds or salts thereof and herbicides containing the same” (priority 2002, published 2005):

Each molecule was assayed on barnyardgrass (assay: Test Example 3: paddy pot test, application under submerged conditions). Settings: active ingredient 250 g/ha; submerged application at 0.5 leaf stage; visually observed 14 days after application; 0 = non-treated, 100 = complete kill.
Type: in vivo, Echinochloa crus-galli L.
How it was run: (§1)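 Visual growth-control rating (0 = untreated, 100 = complete kill) 14 days after treatment. The formulated compound, as a diluted wettable powder or emulsifiable concentrate, went into 3–4 cm flood water at a predetermined active-ingredient dose once the weeds reached 0.5 leaf stage (wapato: primary leaf stage).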

Row | SMILES | Growth controlling degree (%) Barnyardgrass
1 | CC(C)C(c1cnccc1C(F)(F)F)N(C)C(=O)COc1cccc(F)c1 (stereo not drawn) [Compound I-242] | 100%
2 | CCN(C(=O)Cc1ccc(F)cc1)C(c1cnccc1C(F)(F)F)C(C)C (stereo not drawn) [Compound I-99] | 100%
3 | CC(C)C(c1cnccc1C(F)(F)F)N(C)C(=O)COc1ccc(Br)cc1 (stereo not drawn) [I-255] | 100%

The molecules below were run on rice (assay: Test Example 2: soil surface treatment, upland pot test). Settings: active ingredient 500 g/ha, observed 20th to 28th day.
Type: in vivo, Oryza sativa L.
From the text: (§2) Upland field soil was put into a 1/170,000 ha pot, and seed of various plants (barnyardgrass, crabgrass, green foxtail, redroot pigweed, prickly sida, velvetleaf, rice, wheat, corn, soybean) were sown. On the 1st day after the sowing, a wettable powder or emulsifiable concentrate having the compound of the present invention formulated in accordance with a usual formulation method, was weighed so that the active ingredient would be a predetermined amount, and diluted with water in an amount of 1,500 L/ha. The herbicide thus adjusted was applied by a small size sprayer for soil surface treatment. On the 20th to 28th days after the application of the herbicide, the growth of the respective plants was visually observed, and the herbicidal effects were evaluated by the growth controlling degrees (%) ranging from 0 (equivalent to the non-treated plot) to 100 (complete kill), whereby the results shown in Table 4, were obtained.

Row | SMILES | Growth controlling degree (%) Rice
4 | CC(C)C(c1cnccc1C(F)(F)F)N(C)C(=O)COc1cccc(F)c1 (stereo not drawn) [Compound I-242] | 10%
5 | CCN(C(=O)Cc1ccc(F)cc1)C(c1cnccc1C(F)(F)F)C(C)C (stereo not drawn) [Compound I-99] | 20%

Same assay, conditions: active ingredient 500 g/ha, observed day 21, 0 = non-treated, 100 = complete kill

Row | SMILES | Growth controlling degree (%) Rice
6 | CC(C)C(c1cnccc1C(F)(F)F)N(C)C(=O)COc1ccc(Br)cc1 (stereo not drawn) [I-255] | 20%

Each molecule was assayed on crabgrass in the same assay as above. Settings: active ingredient 500 g/ha, observed 20th to 28th day.
Type: in vivo, Digitaria sanguinalis L.
From the text: as §2

Row | SMILES | Growth controlling degree (%) Crabgrass
7 | CC(C)C(c1cnccc1C(F)(F)F)N(C)C(=O)COc1cccc(F)c1 (stereo not drawn) [Compound I-242] | 98%
8 | CCN(C(=O)Cc1ccc(F)cc1)C(c1cnccc1C(F)(F)F)C(C)C (stereo not drawn) [Compound I-99] | 98%

Same assay, conditions: active ingredient 500 g/ha, observed day 21, 0 = non-treated, 100 = complete kill

Row | SMILES | Growth controlling degree (%) Crabgrass
9 | CC(C)C(c1cnccc1C(F)(F)F)N(C)C(=O)COc1ccc(Br)cc1 (stereo not drawn) [I-255] | 98%

Each molecule was assayed on japanese bulrush (assay: Test Example 3: paddy pot test, application under submerged conditions). Settings: active ingredient 250 g/ha; submerged application at 0.5 leaf stage; visually observed 14 days after application; 0 = non-treated, 100 = complete kill.
Type: in vivo, Scirpus juncoides
How it was run: as §1

Row | SMILES | Growth controlling degree (%) Japanese bulrush
10 | CC(C)C(c1cnccc1C(F)(F)F)N(C)C(=O)COc1cccc(F)c1 (stereo not drawn) [Compound I-242] | 95%
11 | CCN(C(=O)Cc1ccc(F)cc1)C(c1cnccc1C(F)(F)F)C(C)C (stereo not drawn) [Compound I-99] | 98%
12 | CC(C)C(c1cnccc1C(F)(F)F)N(C)C(=O)COc1ccc(Br)cc1 (stereo not drawn) [I-255] | 95%

Each molecule was assayed on rice (var. Nihonbare) (assay: Test Example 3: paddy pot test, transplanted rice). Settings: active ingredient 250 g/ha, applied 4th day after transplantation, visually observed 21st day after application, 0 = non-treated, 100 = complete kill.
Type: in vivo, Oryza sativa L.
How it was run: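 Rice (var. Nihonbare) at 2 leaf stage transplanted 3 cm deep into puddled paddy soil under 3–4 cm flooding; on day 4 after transplanting, diluted wettable powder or emulsifiable concentrate applied by pipette under submerged conditions at a set active-ingredient dose. Growth scored visually 21 days after application, 0 (untreated) to 100 (complete kill) %.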

Row | SMILES | Growth controlling degree (%) Rice
13 | CC(C)C(c1cnccc1C(F)(F)F)N(C)C(=O)COc1cccc(F)c1 (stereo not drawn) [Compound I-242] | 0%
14 | CCN(C(=O)Cc1ccc(F)cc1)C(c1cnccc1C(F)(F)F)C(C)C (stereo not drawn) [Compound I-99] | 0%
15 | CC(C)C(c1cnccc1C(F)(F)F)N(C)C(=O)COc1ccc(Br)cc1 (stereo not drawn) [I-255] | 0%

What follows are molecules tested on green foxtail (assay: Test Example 2: soil surface treatment, upland pot test). Settings: active ingredient 500 g/ha, observed 20th to 28th day.
Type: in vivo, Setaria viridis L.
From the text: as §2

Row | SMILES | Growth controlling degree (%) Green foxtail
16 | CC(C)C(c1cnccc1C(F)(F)F)N(C)C(=O)COc1cccc(F)c1 (stereo not drawn) [Compound I-242] | 100%
17 | CCN(C(=O)Cc1ccc(F)cc1)C(c1cnccc1C(F)(F)F)C(C)C (stereo not drawn) [Compound I-99] | 100%

Same assay, conditions: active ingredient 500 g/ha, observed day 21, 0 = non-treated, 100 = complete kill

Row | SMILES | Growth controlling degree (%) Green foxtail
18 | CC(C)C(c1cnccc1C(F)(F)F)N(C)C(=O)COc1ccc(Br)cc1 (stereo not drawn) [I-255] | 98%

Each molecule was assayed on japanese ribbon wapato (assay: Test Example 3: paddy pot test, application under submerged conditions). Settings: active ingredient 250 g/ha; submerged application at primary leaf stage; visually observed 14 days after application; 0 = non-treated, 100 = complete kill.
Type: in vivo, Sagittaria pygniaea
How it was run: as §1

Row | SMILES | Growth controlling degree (%) Japanese ribbon wapato
19 | CC(C)C(c1cnccc1C(F)(F)F)N(C)C(=O)COc1cccc(F)c1 (stereo not drawn) [Compound I-242] | 70%
20 | CCN(C(=O)Cc1ccc(F)cc1)C(c1cnccc1C(F)(F)F)C(C)C (stereo not drawn) [Compound I-99] | 90%
21 | CC(C)C(c1cnccc1C(F)(F)F)N(C)C(=O)COc1ccc(Br)cc1 (stereo not drawn) [I-255] | 20%

The molecules below were run on corn (assay: Test Example 2: soil surface treatment, upland pot test). Settings: active ingredient 500 g/ha, observed 20th to 28th day.
Type: in vivo, Zea mays L.
From the text: as §2

Row | SMILES | Growth controlling degree (%) Corn
22 | CC(C)C(c1cnccc1C(F)(F)F)N(C)C(=O)COc1cccc(F)c1 (stereo not drawn) [Compound I-242] | 40%
23 | CCN(C(=O)Cc1ccc(F)cc1)C(c1cnccc1C(F)(F)F)C(C)C (stereo not drawn) [Compound I-99] | 40%

Same assay, conditions: active ingredient 500 g/ha, observed day 21, 0 = non-treated, 100 = complete kill

Row | SMILES | Growth controlling degree (%) Corn
24 | CC(C)C(c1cnccc1C(F)(F)F)N(C)C(=O)COc1ccc(Br)cc1 (stereo not drawn) [I-255] | 30%

Each molecule was assayed on prickly sida in the same assay as above. Settings: active ingredient 500 g/ha, observed 20th to 28th day.
Type: in vivo, Sida spinosa L.
From the text: as §2

Row | SMILES | Growth controlling degree (%) Prickly sida
25 | CC(C)C(c1cnccc1C(F)(F)F)N(C)C(=O)COc1cccc(F)c1 (stereo not drawn) [Compound I-242] | 98%
26 | CCN(C(=O)Cc1ccc(F)cc1)C(c1cnccc1C(F)(F)F)C(C)C (stereo not drawn) [Compound I-99] | 95%

Same assay, conditions: active ingredient 500 g/ha, observed day 21, 0 = non-treated, 100 = complete kill

Row | SMILES | Growth controlling degree (%) Prickly sida
27 | CC(C)C(c1cnccc1C(F)(F)F)N(C)C(=O)COc1ccc(Br)cc1 (stereo not drawn) [I-255] | 98%

Each molecule was assayed on soybean in the same assay as above. Settings: active ingredient 500 g/ha, observed 20th to 28th day.
Type: in vivo, Glycine max Merr.
From the text: as §2

Row | SMILES | Growth controlling degree (%) Soyabean
28 | CC(C)C(c1cnccc1C(F)(F)F)N(C)C(=O)COc1cccc(F)c1 (stereo not drawn) [Compound I-242] | 10%
29 | CCN(C(=O)Cc1ccc(F)cc1)C(c1cnccc1C(F)(F)F)C(C)C (stereo not drawn) [Compound I-99] | 30%

Same assay, conditions: active ingredient 500 g/ha, observed day 21, 0 = non-treated, 100 = complete kill

Row | SMILES | Growth controlling degree (%) Soyabean
30 | CC(C)C(c1cnccc1C(F)(F)F)N(C)C(=O)COc1ccc(Br)cc1 (stereo not drawn) [I-255] | 10%

These molecules were tested on velvetleaf in the same assay as above. Settings: active ingredient 500 g/ha, observed 20th to 28th day.
Type: in vivo, Abutilon theophrasti MEDIC.
From the text: as §2

Row | SMILES | Growth controlling degree (%) Velvetleaf
31 | CC(C)C(c1cnccc1C(F)(F)F)N(C)C(=O)COc1cccc(F)c1 (stereo not drawn) [Compound I-242] | 70%
32 | CCN(C(=O)Cc1ccc(F)cc1)C(c1cnccc1C(F)(F)F)C(C)C (stereo not drawn) [Compound I-99] | 40%

Same assay, conditions: active ingredient 500 g/ha, observed day 21, 0 = non-treated, 100 = complete kill

Row | SMILES | Growth controlling degree (%) Velvetleaf
33 | CC(C)C(c1cnccc1C(F)(F)F)N(C)C(=O)COc1ccc(Br)cc1 (stereo not drawn) [I-255] | 70%

Each molecule was assayed on barnyardgrass in the same assay as above. Settings: active ingredient 500 g/ha, observed 20th to 28th day.
Type: in vivo, Echinochloa crus-galli L.
From the text: as §2

Row | SMILES | Growth controlling degree (%) Barnyardgrass
34 | CC(C)C(c1cnccc1C(F)(F)F)N(C)C(=O)COc1cccc(F)c1 (stereo not drawn) [Compound I-242] | 98%
35 | CCN(C(=O)Cc1ccc(F)cc1)C(c1cnccc1C(F)(F)F)C(C)C (stereo not drawn) [Compound I-99] | 100%

Same assay, conditions: active ingredient 500 g/ha, observed day 21, 0 = non-treated, 100 = complete kill

Row | SMILES | Growth controlling degree (%) Barnyardgrass
36 | CC(C)C(c1cnccc1C(F)(F)F)N(C)C(=O)COc1ccc(Br)cc1 (stereo not drawn) [I-255] | 95%

What follows are molecules tested on redroot pigweed in the same assay as above. Settings: active ingredient 500 g/ha, observed 20th to 28th day.
Type: in vivo, Amaranthus retroflexus L.
From the text: as §2

Row | SMILES | Growth controlling degree (%) Redroot pigweed
37 | CC(C)C(c1cnccc1C(F)(F)F)N(C)C(=O)COc1cccc(F)c1 (stereo not drawn) [Compound I-242] | 90%
38 | CCN(C(=O)Cc1ccc(F)cc1)C(c1cnccc1C(F)(F)F)C(C)C (stereo not drawn) [Compound I-99] | 40%

Same assay, conditions: active ingredient 500 g/ha, observed day 21, 0 = non-treated, 100 = complete kill

Row | SMILES | Growth controlling degree (%) Redroot pigweed
39 | CC(C)C(c1cnccc1C(F)(F)F)N(C)C(=O)COc1ccc(Br)cc1 (stereo not drawn) [I-255] | 70%
